Five compounds from ChEMBL document CHEMBL4813985, “Lead optimization generates selenium-containing miconazole CYP51 inhibitors with improved pharmacological profile for the treatment of fungal infections” (Eur J Med Chem, 2021) can be followed below.

The test system of data set [1] is Candida albicans. Kind of data set: Potency index, ratio of fluconazole MIC to test compound MIC for Candida albicans CPCC400616 measured after 24 hrs by broth microdilution assay. It is filed as functional.
Data set [2] deals with Candida albicans. Kind of data set: Antifungal activity against Candida albicans CPCC400616 measured after 24 hrs by broth microdilution assay. The format is functional. For orientation: In broth dilution the organism is exposed to a series of concentrations in liquid medium.
A short description of data set [3]: Hemolytic activity in rabbit RBC assessed as hemolysis ratio at 16 ug/ml measured after 3 hrs by microplate reader assay relative to control. It is filed as ADME, cell-based, Oryctolagus cuniculus, Erythrocyte. Particulars: rabbit red blood cells (erythrocytes), at 16 µg/mL, read-out: Activity.
Data set [4] concerns Candida albicans. The experiment in a line: Antifungal activity against fluconazole-resistant Candida albicans 632 assessed as inhibition of microbial growth after 24 hrs by broth microdilution method. It is filed as functional.
Data set [5] in a line: Hemolytic activity in rabbit RBC assessed as hemolysis ratio at 8 ug/ml measured after 3 hrs by microplate reader assay relative to control. Particulars: rabbit red blood cells (erythrocytes), at 8 µg/mL, read-out: Activity. It is filed as ADME, cell-based, Oryctolagus cuniculus, Erythrocyte.
The next data set relates to HL-60. Kind of data set: Cytotoxicity against human HL-60 cells assessed as reduction in cell viability incubated for 96 hrs by MTT assay. The format is cell-based. Particulars: HL-60, 96 h. (In general: Formazan colour is commonly taken as a measure of viable cells.)
The test system of a further data set is MCF-10A. Kind of data set: Cytotoxicity against human MCF-10A cells assessed as reduction in cell viability incubated for 96 hrs by MTT assay. The conditions noted are these: read-out: IC50. It is filed as cell-based.
The next data set relates to Nakaseomyces glabratus. Kind of data set: Antifungal activity against Candida glabrata measured after 24 hrs by broth microdilution assay. The format is functional.
Data set [6] deals with Candida albicans. Kind of data set: Anti-biofilm activity in Candida albicans CPCC400616 assessed as inhibition of biofilm formation incubated for 24 hrs with 1.5 hrs precultured fungal suspension by XTT assay. It is filed as functional.
For the next data set, the system named is PC-3. The experiment in a line: Cytotoxicity against human PC3 cells assessed as reduction in cell viability incubated for 96 hrs by MTT assay. The format is cell-based. Particulars: PC-3, 96 h, read-out: IC50.
For data set [7], the system named is Candida albicans. The experiment in a line: Anti-biofilm activity in Candida albicans CPCC400616 assessed as inhibition of biofilm formation incubated for 24 hrs with 6 hrs precultured fungal suspension by XTT assay. It is filed as functional.
Data set [8] relates to Candida albicans. The experiment in a line: Antifungal activity against fluconazole-resistant Candida albicans CaR assessed as inhibition of microbial growth after 24 hrs by broth microdilution method. The format is functional.
A short description of data set [9]: Hemolytic activity in rabbit RBC assessed as hemolysis ratio at 2 ug/ml measured after 3 hrs by microplate reader assay relative to control. The format is ADME, cell-based, Oryctolagus cuniculus, Erythrocyte. The conditions noted are these: rabbit red blood cells (erythrocytes), at 2 µg/mL, read-out: Activity.
Data set [10] deals with Candida albicans. The experiment in a line: Antifungal activity against fluconazole-resistant Candida albicans 17# assessed as inhibition of microbial growth after 24 hrs by broth microdilution method. It is filed as functional.
Data set [11] has as its system Candida albicans. The experiment in a line: Anti-biofilm activity in Candida albicans CPCC400616 assessed as inhibition of biofilm formation incubated for 24 hrs with 24 hrs precultured fungal suspension by XTT assay. It is filed as functional.
A further data set concerns Cryptococcus neoformans. The experiment in a line: Antifungal activity against Cryptococcus neoformans CMGCC2.3161 measured after 72 hrs by broth microdilution assay. The format is functional.
Data set [12] relates to Candida albicans. Kind of data set: Antifungal activity against Candida albicans ATCC SC5314 measured after 24 hrs by broth microdilution assay. The format is functional.
A short description of data set [13]: Metabolic stability in mouse liver microsomes assessed as clearance. It is filed as ADME, Microsome. The conditions noted are these: read-out: CLH. In general terms: Liver microsomes are vesicles of endoplasmic reticulum, rich in cytochrome P450 enzymes.
A further data set relates to MDA-MB-231. Kind of data set: Cytotoxicity against human MDA-MB-231 cells assessed as reduction in cell viability incubated for 96 hrs by MTT assay. The conditions noted are these: MDA-MB-231, 96 h.
In the next data set the test system is Candida parapsilosis. The experiment in a line: Antifungal activity against Candida parapsilosis ATCC 22019 measured after 24 hrs by broth microdilution assay. It is filed as functional. The conditions noted are these: Lodderomyces parapsilosis.
For data set [14], the system named is Candida albicans. Kind of data set: Antifungal activity against fluconazole-resistant Candida albicans 904 assessed as inhibition of microbial growth after 24 hrs by broth microdilution method. It is filed as functional.
The nature of data set [15]: Hemolytic activity in rabbit RBC assessed as hemolysis ratio at 1 ug/ml measured after 3 hrs by microplate reader assay relative to control. The format is ADME, cell-based, Oryctolagus cuniculus, Erythrocyte. Particulars: rabbit red blood cells (erythrocytes), at 1 µg/mL, read-out: Activity.
Data set [16] deals with Candida albicans. Kind of data set: Anti-biofilm activity in Candida albicans CPCC400616 assessed as inhibition of biofilm formation incubated for 24 hrs with 3 hrs precultured fungal suspension by XTT assay. The format is functional.
For another data set, the system named is Pichia kudriavzevii. The experiment in a line: Antifungal activity against Candida krusei AS2.1045 measured after 24 hrs by broth microdilution assay. The format is functional.
In data set [17] the test system is Candida albicans. The experiment in a line: Antifungal activity against fluconazole-resistant Candida albicans 901 assessed as inhibition of microbial growth after 24 hrs by broth microdilution method. The format is functional.
Data set [18] in a line: Metabolic stability in mouse liver microsomes assessed as half life. It is filed as ADME, Microsome.
For the next data set, the system named is Aspergillus fumigatus. Kind of data set: Antifungal activity against Aspergillus fumigatus CMGCC3.7795 measured after 72 hrs by broth microdilution assay. The format is functional.
A short description of data set [19]: Hemolytic activity in rabbit RBC assessed as hemolysis ratio at 4 ug/ml measured after 3 hrs by microplate reader assay relative to control. It is filed as ADME, cell-based, Oryctolagus cuniculus, Erythrocyte. Particulars: rabbit red blood cells (erythrocytes), at 4 µg/mL, read-out: Activity.
A further data set relates to [Candida] zeylanoides. The experiment in a line: Antifungal activity against Candida zeylanoides CMGCC2.3739 measured after 24 hrs by broth microdilution assay. The format is functional. Particulars: Dujonia zeylanoides.

≈ marks a conversion by molar mass, not a printed value.

As to `Fc1cccc([Se]C(Cn2ccnc2)c2ccc(Cl)cc2Cl)c1` (stereo not drawn), the Ratio with Candida albicans [1] is recorded as 8. Also, the MIC – broadly, the smallest concentration in the dilution series that meets the test's criterion for growth inhibition – amounted to 0.25 µg/mL (≈ 0.604 µM) in the data set on Candida albicans [2]; 0.5 µg/mL in the data set on Candida albicans [4]; 1 µg/mL (≈ 2.41 µM) in the data set on Nakaseomyces glabratus; 2 µg/mL in the data set with Candida albicans [8]; 1 µg/mL in the data set with Candida albicans [10]; 0.13 µg/mL (≈ 0.314 µM) in the data set with Cryptococcus neoformans. For the same compound, the MIC was 0.06 µg/mL (≈ 0.145 µM) in the data set with Candida albicans [12]; 0.25 µg/mL (≈ 0.604 µM) against Candida parapsilosis; 1 µg/mL in the data set on Candida albicans [14]; 0.13 µg/mL (≈ 0.314 µM) against Pichia kudriavzevii; 1 µg/mL with Candida albicans [17]; 4 µg/mL (≈ 9.66 µM) against Aspergillus fumigatus. In addition, the MIC in [Candida] zeylanoides stood at 0.25 µg/mL (≈ 0.604 µM). For the same compound, the hemolysis at 3 h, 16 ug/ml in [3] came to 100%. In addition, the hemolysis at 3 h, 8 ug/ml in data set [5] turned out to be 94.6%. The IC50 (usually the concentration that gives 50% inhibition) turned out to be 8.26 µM in the data set on HL-60, 28.6 µM in the data set on MCF-10A, 20.4 µM in the data set on PC-3 and 13.4 µM with MDA-MB-231. Further, the MIC50 is 4 µg/mL (≈ 9.66 µM) in the data set on Candida albicans [6], 128 µg/mL (≈ 309 µM) in the data set with Candida albicans [7], more than 128 µg/mL with Candida albicans [11] and 8 µg/mL (≈ 19.3 µM) with Candida albicans [16]. Further, the MIC80 is 16 µg/mL (≈ 38.6 µM) with Candida albicans [6], more than 128 µg/mL in the data set on Candida albicans [7], more than 128 µg/mL in the data set with Candida albicans [11] and 128 µg/mL (≈ 309 µM) in the data set on Candida albicans [16]. The hemolysis at 3 h, 2 ug/ml in data set [9] was 0%. Also, the CLint scaled in data set [13] amounted to 531 mL/min/kg. The hemolysis at 3 h, 1 ug/ml in data set [15] was 0%. Besides, the half-life (in general, the time in which the quantity being followed falls by half) in data set [18] was 10.3 min. In addition, the hemolysis at 3 h, 4 ug/ml in data set [19] is 87.7%.
As to `Cc1ccc(C)c([Se]C(Cn2ccnc2)c2ccc(Cl)cc2Cl)c1` (stereo not drawn), the Ratio in the data set on Candida albicans [1] amounted to 8. Besides, the MIC came to 0.25 µg/mL (≈ 0.589 µM) against Candida albicans [2]; 0.5 µg/mL in the data set on Candida albicans [4]; 0.5 µg/mL (≈ 1.18 µM) with Nakaseomyces glabratus; 0.25 µg/mL with Candida albicans [8]; 0.13 µg/mL with Candida albicans [10]; 0.5 µg/mL (≈ 1.18 µM) with Cryptococcus neoformans. The MIC was 0.03 µg/mL (≈ 0.0707 µM) against Candida albicans [12]; 0.5 µg/mL (≈ 1.18 µM) against Candida parapsilosis; 0.25 µg/mL with Candida albicans [14]; 0.5 µg/mL (≈ 1.18 µM) in the data set on Pichia kudriavzevii; 0.25 µg/mL in the data set with Candida albicans [17]; 16 µg/mL (≈ 37.7 µM) against Aspergillus fumigatus. The compound also returned an MIC in data set [Candida] zeylanoides of 2 µg/mL (≈ 4.71 µM). In addition, in [3], the hemolysis at 3 h, 16 ug/ml was 100%. Also, the hemolysis at 3 h, 8 ug/ml in data set [5] came to 100%. In addition, the IC50 in the data set with HL-60 turned out to be 6.95 µM; in the data set on MCF-10A, 27.2 µM; in the data set with PC-3 it was 7.25 µM; in the data set with MDA-MB-231 it was 6.61 µM. For the same compound, in data set [9], the hemolysis at 3 h, 2 ug/ml was found to be 0.89%. Besides, the hemolysis at 3 h, 1 ug/ml in data set [15] was 0%. Further, the hemolysis at 3 h, 4 ug/ml in data set [19] was found to be 84.4%.
Consider `COc1ccc([Se]C(Cn2ccnc2)c2ccc(F)cc2F)cc1` (stereo not drawn), for which the Ratio with Candida albicans [1] was found to be 8. In addition, the MIC against Candida albicans [2] amounted to 1 µg/mL (≈ 2.54 µM); in the data set with Candida albicans [4], 16 µg/mL; in the data set with Nakaseomyces glabratus it was 0.5 µg/mL (≈ 1.27 µM); in the data set on Candida albicans [8], 2 µg/mL; in the data set on Candida albicans [10], 16 µg/mL; against Cryptococcus neoformans, 0.5 µg/mL (≈ 1.27 µM). For the same compound, the MIC against Candida albicans [12] worked out at 0.03 µg/mL (≈ 0.0763 µM); against Candida parapsilosis it was 0.25 µg/mL (≈ 0.636 µM); with Candida albicans [14], 8 µg/mL; in the data set with Pichia kudriavzevii it was 0.5 µg/mL (≈ 1.27 µM); in the data set on Candida albicans [17], 2 µg/mL; in the data set on Aspergillus fumigatus it was 8 µg/mL (≈ 20.3 µM). The same compound registered an MIC in data set [Candida] zeylanoides of 0.25 µg/mL (≈ 0.636 µM).
In the case of `Cc1ccc([Se]C(Cn2ccnc2)c2ccc(F)cc2F)cc1` (stereo not drawn), in the data set on Candida albicans [1], the Ratio stood at 8. The MIC with Candida albicans [2] turned out to be 0.5 µg/mL (≈ 1.33 µM); in the data set on Candida albicans [4], 1 µg/mL; against Nakaseomyces glabratus, 0.5 µg/mL (≈ 1.33 µM); in the data set on Candida albicans [8] it was 2 µg/mL; with Candida albicans [10], 16 µg/mL; with Cryptococcus neoformans, 0.13 µg/mL (≈ 0.345 µM). For the same compound, the MIC is 0.03 µg/mL (≈ 0.0795 µM) in the data set with Candida albicans [12]; 0.25 µg/mL (≈ 0.663 µM) against Candida parapsilosis; 4 µg/mL in the data set with Candida albicans [14]; 0.13 µg/mL (≈ 0.345 µM) with Pichia kudriavzevii; 8 µg/mL with Candida albicans [17]; 8 µg/mL (≈ 21.2 µM) against Aspergillus fumigatus. In data set [Candida] zeylanoides, this compound returned an MIC of 0.5 µg/mL (≈ 1.33 µM).
`Fc1ccc([Se]C(Cn2ccnc2)c2ccc(Cl)cc2Cl)cc1` (stereo not drawn): the Ratio with Candida albicans [1] amounted to 8. For the same compound, the MIC was found to be 0.25 µg/mL (≈ 0.604 µM) with Candida albicans [2]; 1 µg/mL in the data set with Candida albicans [4]; 0.5 µg/mL (≈ 1.21 µM) with Nakaseomyces glabratus; 8 µg/mL in the data set with Candida albicans [8]; 2 µg/mL in the data set on Candida albicans [10]; 0.03 µg/mL (≈ 0.0724 µM) with Cryptococcus neoformans. The MIC with Candida albicans [12] was determined as 0.03 µg/mL (≈ 0.0724 µM); against Candida parapsilosis, 0.25 µg/mL (≈ 0.604 µM); with Candida albicans [14], 1 µg/mL; in the data set with Pichia kudriavzevii, 0.02 µg/mL (≈ 0.0483 µM); with Candida albicans [17], 1 µg/mL; in the data set on Aspergillus fumigatus, 8 µg/mL (≈ 19.3 µM). Further, in data set [Candida] zeylanoides, it took 0.25 µg/mL (≈ 0.604 µM) to inhibit growth (MIC).
